Structures are written as SMILES.

The experiment deals with sterol synthesis. In words: CSI: inhibition of cholesterol biosynthesis, incorporation of cholesterol-^14 C-acetate into nonsaponifiable lipid by rat liver homogenate. Format: biochemical. The conditions noted are these: 50% inhibition of sterol synthesis over a one-hour period; liver homogenate of rats fed chow diet containing 5% cholestyramine for four days. On the procedure: The ability of compounds of the present invention to inhibit the biosynthesis of cholesterol was measured by the procedure described by R. E. Dugan et al., Archiv. Biochem. Biophys., (1972), 152, 21-27. In this method, designated CSI, the level of HMG-CoA enzyme activity in standard laboratory rats is increased by feeding the rats a chow diet containing 5% cholestyramine for four days, after which the rats are sacrificed.
The rat livers are homogenized, and the incorporation of cholesterol-^14 C-acetate into nonsaponifiable lipid by the rat liver homogenate is measured. The micromolar concentration of compound required for 50% inhibition of sterol synthesis over a one-hour period is measured, and expressed as an IC50 value.
By IC50 is commonly meant the concentration that inhibits the measured activity by half. A lower IC50 goes with greater potency. The compound `CC[C@H](C)C(=O)O[C@H]1CCC=C2C=C[C@H](C)[C@H](CC[C@@H]3C[C@@H](O)CC(=O)O3)[C@H]21` [Compactin, reference compound] yielded an IC50 of 18 nM.
The compound `CC(C)c1cc(-c2cccnc2)c(-c2ccc(F)cc2)n1CC[C@@H]1C[C@@H](O)CC(=O)O1` (relative stereo) [Compound 2, trans-(±)-6-[2-[2-[(4-Fluorophenyl)-5-(1-methylethyl)-3-(3-pyridinyl)-1H-pyrrol-1-yl]ethyl]tetrahydro-4-hydroxy-2H-pyran-2-one] returned an IC50 of 55 nM. This IC50 is about 3.1-fold higher than that of the compound before.
`CC(C)c1cc(-c2ccccn2)c(-c2ccc(F)cc2)n1CC[C@H]1C[C@H](O)CC(=O)O1` (racemic) [Compound 1, trans-(±)-6-[2-[2-(4-Fluorophenyl)-5-(1-methylethyl)-3-(2-pyridinyl)-1H-pyrrol-1-yl]ethyl]tetrahydro-4-hydroxy-2H-pyran-2-one]: the IC50 came to 48 nM.
Next, `CC(C)c1cc(-c2ccncc2)c(-c2ccc(F)cc2)n1CC[C@H]1C[C@H](O)CC(=O)O1` (racemic) [Compound 3, trans-(±)-6-[2-[2-(4-Fluorophenyl)-5-(1-methylethyl)-3-(4-pyridinyl)-1H-pyrrol-1-yl]ethyl]tetrahydro-4-hydroxy-2H-pyran-2-one]: 13 nM.
